Measurements: patent publication US20230286973A1, “PROTEIN SECRETION INHIBITORS” (KEZAR LIFE SCIENCES, priority 2020, published 2023)

Tests used:
[1] = Liver Microsome Stability Assay (monkey); details: monkey liver microsomes, with NADPH, 1.0 uM compound
Experimental: (§1) Stability of a compound was assessed in the presence of liver microsomes from various sources—mouse, rat, monkey and human liver microsomes. 1.0 uM compound, 0.4% DMSO in 0.1 M Potassium Phosphate with 1.0 mg/mL liver microsomes, were incubated at 37° C. with or without 1 mM NADPH. The samples were quenched at 0, and 30 minutes.

[2] = system: multiple myeloma cell line U266B1; experiment: U266 Cell Viability Assay; type: cell-based, human; details: Homo sapiens, U-266, 48 h, U266B1 cells, Celltiter-Glo
Summary of the method: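 48 h treatment, 37° C./5% CO2, RPMI 1640 + 10% FBS; viability by CellTiter-Glo luminescence.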

[3] = system: multiple myeloma cell line NCI-H929; experiment: H929 Cell Viability Assay; type: cell-based, human; details: Homo sapiens, NCI-H929, 48 h, NCI-H929 cells, Celltiter-Glo
Summary of the method: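 Plate the myeloma cells in RPMI 1640 with 10% FBS, add serially diluted compound, incubate for 48 hours at 37° C, then add CellTiter-Glo and read luciferase signal.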

[4] = system: IL-2-FL/Gaussia Luciferase; experiment: Dox Induced IL2-FL-Gluc Assay; type: cell-based; details: for IC50: 24 hr Dox induction, 293FRT/TO cells, read-out: 24 hr Dox Inducible IL2FLGluc 293FRT/TO: Mean IC50; for 24 hr Dox Inducible IL2FLGluc 293FRT/TO: IL2/PD1: ratio of IL2FLGluc IC50 to PD1ssGluc IC50
Summary of the method: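 Reporter is Gaussia luciferase fused to the 3′ end of full-length IL-2 (aa 1-153), expressed from a doxycycline-inducible T-REx construct in stably selected Flp-In 293 cells. Compounds were co-added with doxycycline and incubated at 37° C, 5% CO2.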

[5] = Liver Microsome Stability Assay (mouse); details: mouse liver microsomes, with NADPH, 1.0 uM compound
Experimental: as §1

[6] = Liver Microsome Stability Assay (rat); details: rat liver microsomes, with NADPH, 1.0 uM compound
Experimental: as §1

[7] = system: TNFα-FL/Gaussia Luciferase; experiment: Dox Induced TNFα-FL-Gluc Assay; type: cell-based; details: for IC50: 24 hr Dox induction, 293FRT/TO cells, read-out: 24 hr Dox Inducible TNFaFLGluc 293FRT/TO: Mean IC50; for 24 hr Dox Inducible TNFaFLGluc 293FRT/TO: TNF/PD1: ratio of TNFaFLGluc IC50 to PD1ssGluc IC50
Summary of the method: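 Cells are seeded one day ahead, then treated with compound plus doxycycline at 37 °C, 5% CO2. The stable Flp-In 293 T-REx line expresses full-length TNFα (amino acids 1-233) with Gaussia luciferase fused to its 3′ end, inducibly via T-REx.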

[8] = system: PD1-ss+10aa/Gaussia Luciferase; experiment: Dox-Induced PD1-ss-Gluc Assay; type: cell-based; details: 24 hr Dox induction; 293FRT/TO cells; read-out: 24 hr Dox Inducible PD1ssGluc 293FRT/TO: Mean IC50
Summary of the method: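 Compounds were added in DMSO/media with doxycycline and incubated at 37 °C, 5% CO2, on 293 T-REx cells plated one day earlier. These cells stably express, under tetracycline-regulated control, a Gaussia luciferase fused to the PD1 signal peptide plus 10 residues. Structures drawn without stereochemistry were tested as stereoisomer mixtures.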

[9] = system: HER3-ss+4aa/Gaussia Luciferase; experiment: Dox-Induced Her3-ss-Gluc Assay; type: cell-based; details: 24 hr Dox induction; 293FRT/TO cells; read-out: 24 hr Dox Inducible Her3(ss + 4)Gluc 293FRT/TO: Mean IC50
Summary of the method: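 Expression of a Gaussia luciferase reporter carrying the HER3 signal sequence plus 4 amino acids is induced by doxycycline in stably transfected Flp-In 293 T-REx cells. Compounds are added with doxycycline at 37° C., 5% CO2. Undefined stereocentres denote stereoisomer mixtures.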

[10] = Liver Microsome Stability Assay (human); details: human liver microsomes, with NADPH, 1.0 uM compound
Experimental: as §1

Row | SMILES | Liver Microsome Stability (Multiple Species): Monkey - % Remaining after 30 min w/NADPH [1] [%] | EC50 [2] [µM] | EC50 [3] [µM] | IC50 [4] [µM] | Liver Microsome Stability (Multiple Species): Mouse - % Remaining after 30 min w/NADPH [5] [%] | Liver Microsome Stability (Multiple Species): Rat - % Remaining after 30 min w/NADPH [6] [%] | IC50 [7] [µM] | IC50 [8] [µM] | IC50 [9] [µM] | Liver Microsome Stability (Multiple Species): Human - % Remaining after 30 min w/NADPH [10] [%] | 24 hr Dox Inducible IL2FLGluc 293FRT/TO: IL2/PD1 [4] | 24 hr Dox Inducible TNFaFLGluc 293FRT/TO: TNF/PD1 [7]
1 | O=C(Nc1nc([C@@H]2CCCN2c2ccc(C(F)(F)F)cc2)cs1)c1cccn1Cc1ccnc(F)c1 [Compound A142, (S)-1-((2-fluoropyridin-4-yl)methyl)-N-(4-(1-(4-(trifluoromethyl)phenyl)pyrrolidin-2-yl)thiazol-2-yl)-1H-pyrrole-2-carboxamide] | 29.6 | > 25 | 16.3 | 0.963 | 60.5 | 59.4 | 6.87 | 0.323 | 0.66 | 20.9 | 3 | 21.3
2 | COC(=O)Nc1ccc(N2CCC[C@@H]2c2csc(NC(=O)c3cccn3Cc3ccnc(F)c3)n2)cc1 [Compound A144, methyl (R)-(4-(2-(2-(1-((2-fluoropyridin-4-yl)methyl)-1H-pyrrole-2-carboxamido)thiazol-4-yl)pyrrolidin-1-yl)phenyl)carbamate] | 10.7 | > 25 | 0.0159 | 0.00133 | 20.2 | 34 | 0.0059 | 0.00036 | 0.00081 | 36.4 | 3.7 | 16.3
3 | CCOC(=O)Nc1ccc(N2CCC[C@@H]2c2csc(NC(=O)c3cccn3Cc3ccnc(F)c3)n2)cc1 [Compound A145, ethyl (R)-(4-(2-(2-(1-((2-fluoropyridin-4-yl)methyl)-1H-pyrrole-2-carboxamido)thiazol-4-yl)pyrrolidin-1-yl)phenyl)carbamate] | 18 | > 25 | 0.0135 | 0.00111 | 25.1 | 46 | 0.00751 | 0.00031 | 0.00083 | 41.5 | 3.6 | 24
4 | CC(C)OC(=O)Nc1ccc(N2CCC[C@@H]2c2csc(NC(=O)c3cccn3Cc3ccnc(F)c3)n2)cc1 [Compound A146, isopropyl (R)-(4-(2-(2-(1-((2-fluoropyridin-4-yl)methyl)-1H-pyrrole-2-carboxamido)thiazol-4-yl)pyrrolidin-1-yl)phenyl)carbamate] | 21.6 | > 25 | 0.0393 | 0.00256 | 34.8 | 54.1 | 0.0206 | 0.00097 | 0.00247 | 49.5 | 2.6 | 21.1

More lines, main results first:

Row | Liver Microsome Stability (Multiple Species): Monkey - % Remaining after 30 min w/NADPH [1] [%] | EC50 [2] [µM] | EC50 [3] [µM] | IC50 [4] [µM] | Liver Microsome Stability (Multiple Species): Mouse - % Remaining after 30 min w/NADPH [5] [%] | Liver Microsome Stability (Multiple Species): Rat - % Remaining after 30 min w/NADPH [6] [%] | IC50 [7] [µM] | IC50 [8] [µM] | IC50 [9] [µM] | Liver Microsome Stability (Multiple Species): Human - % Remaining after 30 min w/NADPH [10] [%] | SMILES | 24 hr Dox Inducible IL2FLGluc 293FRT/TO: IL2/PD1 [4] | 24 hr Dox Inducible TNFaFLGluc 293FRT/TO: TNF/PD1 [7]
5 | 8.54 | > 25 | 0.418 | 0.0337 | 16.1 | 12.8 | 0.361 | 0.0139 | 0.00988 | 14 | CC(=O)N1CCC(Oc2ccc(N3CCC[C@@H]3c3csc(NC(=O)c4cccn4Cc4ccnc(F)c4)n3)cc2Cl)CC1 [Compound A140, (R)-N-(4-(1-(4-((1-acetylpiperidin-4-yl)oxy)-3-chlorophenyl)pyrrolidin-2-yl)thiazol-2-yl)-1-((2-fluoropyridin-4-yl)methyl)-1H-pyrrole-2-carboxamide] | 2.4 | 25.9
6 | 0.94 | > 25 | 0.921 | 0.054 | 0.97 | 2.9 | 0.497 | 0.0275 | 0.0439 | 2.77 | O=C(CO)Nc1ccc(N2CCC[C@@H]2c2csc(NC(=O)c3cccn3Cc3ccnc(F)c3)n2)cc1 [Compound A141, (R)-1-((2-fluoropyridin-4-yl)methyl)-N-(4-(1-(4-(2-hydroxyacetamido)phenyl)pyrrolidin-2-yl)thiazol-2-yl)-1H-pyrrole-2-carboxamide] | 2 | 18
7 | 0.01 | 11.9 | 1.01 | 0.0312 | 0.06 | 6.14 | 0.209 | 0.0519 | 0.0648 | 0.16 | CC(=O)N1CCC(Oc2ccc(N3CCC[C@@H]3c3csc(NC(=O)c4cccn4Cc4ccnc(F)c4)n3)c(Cl)c2)CC1 [Compound A143, (R)-N-(4-(1-(4-((1-acetylpiperidin-4-yl)oxy)-2-chlorophenyl)pyrrolidin-2-yl)thiazol-2-yl)-1-((2-fluoropyridin-4-yl)methyl)-1H-pyrrole-2-carboxamide] | 0.6 | 4.03
8 | 0.94 | 3.48 | 0.469 | 0.109 | 5.61 | 2.95 | 0.316 | 0.0719 | 0.106 | 8.6 | CC(=O)N1CCC(Nc2ccc(N3CCC[C@@H]3c3csc(NC(=O)c4cccn4Cc4ccnc(F)c4)n3)cc2)CC1 [Compound A147, (R)-N-(4-(1-(4-((1-acetylpiperidin-4-yl)amino)phenyl)pyrrolidin-2-yl)thiazol-2-yl)-1-((2-fluoropyridin-4-yl)methyl)-1H-pyrrole-2-carboxamide] | 1.5 | 4.4
9 | 0.84 | 11.1 | 1.66 | 0.0872 | 4.79 | 28.3 | 0.579 | 0.0459 | 0.073 | 7.55 | CN(C)S(=O)(=O)N1CC(Oc2ccc(N3CCC[C@@H]3c3csc(NC(=O)c4cccn4Cc4ccnc(F)c4)n3)cc2)C1 [Compound A148, (R)-N-(4-(1-(4-((1-(N,N-dimethylsulfamoyl)azetidin-3-yl)oxy)phenyl)pyrrolidin-2-yl)thiazol-2-yl)-1-((2-fluoropyridin-4-yl)methyl)-1H-pyrrole-2-carboxamide] | 1.9 | 12.6
